Test results published in ChEMBL document CHEMBL1201862, “PubChem BioAssay data set” (2004).
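Cultured in 96-well plates, cells were exposed to test compound for 48 hours across five concentrations. GI50 = concentration required for 50% inhibition of growth.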 Activity calls are given as the source filed them. Cut-off read from the data, not from the text of the source: active = GI50 up to about 1.1 µM and inactive = higher.

Experiments:
Assay in all cases: DTP human tumour cell line panel, 48 h
K562 = test system: K562
SF-295 = test system: SF-295
TK-10 = test system: TK-10
U-251 = test system: U-251
Malme-3M = test system: Malme-3M
OVCAR-5 = test system: OVCAR-5
HCC 2998 = test system: HCC 2998
HL-60 = test system: HL-60
SF-539 = test system: SF-539
RXF 393 = test system: RXF 393
MCF7 = test system: MCF7
HCT-15 = test system: HCT-15
LOX IMVI = test system: LOX IMVI
OVCAR-3 = test system: OVCAR-3
BT-549 = test system: BT-549
MOLT-4 = test system: MOLT-4
SK-MEL-28 = test system: SK-MEL-28
SK-MEL-2 = test system: SK-MEL-2
SW-620 = test system: SW-620
SK-MEL-5 = test system: SK-MEL-5
HOP-62 = test system: HOP-62
UACC-257 = test system: UACC-257
CCRF-CEM = test system: CCRF-CEM
RPMI-8226 = test system: RPMI-8226
SF-268 = test system: SF-268
SR = test system: SR
SNB-19 = test system: SNB-19
OVCAR-8 = test system: OVCAR-8
HOP-92 = test system: HOP-92
SN12C = test system: SN12C
A498 = test system: A498
KM12 = test system: KM12
UO-31 = test system: UO-31
NCI-H460 = test system: NCI-H460
A549 = test system: A549
COLO 205 = test system: COLO 205
786-0 = test system: 786-0
MDA-MB-231 = test system: MDA-MB-231
EKVX = test system: EKVX
NCI-H23 = test system: NCI-H23
ACHN = test system: ACHN
DU-145 = test system: DU-145
NCI/ADR-RES = test system: NCI/ADR-RES
M14 = test system: M14
SNB-75 = test system: SNB-75
IGROV-1 = test system: IGROV-1
OVCAR-4 = test system: OVCAR-4
PC-3 = test system: PC-3
CAKI-1 = test system: CAKI-1
HCT-116 = test system: HCT-116
MDA-MB-435 = test system: MDA-MB-435
NCI-H226 = test system: NCI-H226
MDA-N = test system: MDA-N
HT-29 = test system: HT-29
UACC-62 = test system: UACC-62
SK-OV-3 = test system: SK-OV-3
NCI-H522 = test system: NCI-H522

O=C=NCCCCCCN1C(=O)N2C(c3ccccc3)N(CCCCCCN=C=O)C(=O)N2C1c1ccccc1 (stereo not given)
GI50 (K562): > 100 µM (inactive)
GI50 (SF-295): > 100 µM (inactive)
GI50 (TK-10): > 100 µM (inactive)
GI50 (U-251): > 100 µM (inactive)
GI50 (Malme-3M): > 100 µM (inactive)
GI50 (OVCAR-5): > 100 µM (inactive)
GI50 (HCC 2998): > 100 µM (inactive)
GI50 (HL-60): > 100 µM (inactive)
GI50 (SF-539): > 100 µM (inactive)
GI50 (RXF 393): > 100 µM (inactive)
GI50 (MCF7): > 100 µM (inactive)
GI50 (HCT-15): > 100 µM
GI50 (LOX IMVI): > 100 µM (inactive)
GI50 (OVCAR-3): > 100 µM (inactive)
GI50 (BT-549): > 100 µM (inactive)
GI50 (MOLT-4): 62.1 µM (inactive)
GI50 (SK-MEL-28): > 100 µM (inactive)
GI50 (SK-MEL-2): > 100 µM (inactive)
GI50 (SW-620): > 100 µM (inactive)
GI50 (SK-MEL-5): > 100 µM (inactive)
GI50 (HOP-62): > 100 µM (inactive)
GI50 (UACC-257): > 100 µM (inactive)
GI50 (CCRF-CEM): 79.3 µM (inactive)
GI50 (RPMI-8226): 55 µM (inactive)
GI50 (SF-268): > 100 µM (inactive)
GI50 (SR): 65.2 µM (inactive)
GI50 (SNB-19): > 100 µM (inactive)
GI50 (OVCAR-8): > 100 µM (inactive)
GI50 (HOP-92): > 100 µM (inactive)
GI50 (SN12C): > 100 µM (inactive)
GI50 (A498): > 100 µM (inactive)
GI50 (KM12): > 100 µM (inactive)
GI50 (UO-31): > 100 µM (inactive)
GI50 (NCI-H460): > 100 µM (inactive)
GI50 (A549): > 100 µM (inactive)
GI50 (COLO 205): > 100 µM (inactive)
GI50 (786-0): > 100 µM (inactive)
GI50 (MDA-MB-231): > 100 µM (inactive)
GI50 (EKVX): > 100 µM (inactive)
GI50 (NCI-H23): > 100 µM (inactive)
GI50 (ACHN): > 100 µM (inactive)
GI50 (DU-145): > 100 µM (inactive)
GI50 (NCI/ADR-RES): > 100 µM (inactive)
GI50 (M14): > 100 µM (inactive)
GI50 (SNB-75): > 100 µM (inactive)
GI50 (IGROV-1): > 100 µM (inactive)
GI50 (OVCAR-4): > 100 µM (inactive)
GI50 (PC-3): > 100 µM (inactive)
GI50 (CAKI-1): > 100 µM (inactive)
GI50 (HCT-116): > 100 µM (inactive)
GI50 (MDA-MB-435): > 100 µM (inactive)
GI50 (NCI-H226): > 100 µM (inactive)
GI50 (MDA-N): > 100 µM (inactive)
GI50 (HT-29): > 100 µM (inactive)

Cc1c(N/C=C(\C#N)C(=O)c2ccc(Cl)cc2)c(=O)n(-c2ccccc2)n1C
GI50 (K562): 97.9 µM (inactive)
GI50 (SF-295): > 100 µM (inactive)
GI50 (TK-10): 32.9 µM (inactive)
GI50 (U-251): > 100 µM (inactive)
GI50 (UACC-62): 59.3 µM (inactive)
GI50 (Malme-3M): > 100 µM (inactive)
GI50 (OVCAR-5): > 100 µM (inactive)
GI50 (HCC 2998): > 100 µM (inactive)
GI50 (HL-60): 38.7 µM (inactive)
GI50 (SF-539): > 100 µM (inactive)
GI50 (RXF 393): > 100 µM (inactive)
GI50 (MCF7): 62.1 µM (inactive)
GI50 (HCT-15): > 100 µM
GI50 (LOX IMVI): > 100 µM (inactive)
GI50 (OVCAR-3): 72.1 µM (inactive)
GI50 (BT-549): 46.6 µM (inactive)
GI50 (SK-MEL-28): > 100 µM (inactive)
GI50 (SK-MEL-2): 62.1 µM (inactive)
GI50 (SW-620): 90.4 µM (inactive)
GI50 (SK-MEL-5): 66.7 µM (inactive)
GI50 (UACC-257): > 100 µM (inactive)
GI50 (CCRF-CEM): 38.9 µM (inactive)
GI50 (RPMI-8226): 34.6 µM (inactive)
GI50 (SNB-19): > 100 µM (inactive)
GI50 (OVCAR-8): 91.8 µM (inactive)
GI50 (HOP-92): > 100 µM (inactive)
GI50 (SN12C): > 100 µM (inactive)
GI50 (SK-OV-3): > 100 µM (inactive)
GI50 (A498): 48.8 µM (inactive)
GI50 (KM12): > 100 µM (inactive)
GI50 (UO-31): 64.9 µM (inactive)
GI50 (NCI-H460): > 100 µM (inactive)
GI50 (A549): > 100 µM (inactive)
GI50 (COLO 205): > 100 µM (inactive)
GI50 (786-0): > 100 µM (inactive)
GI50 (MDA-MB-231): > 100 µM (inactive)
GI50 (EKVX): > 100 µM (inactive)
GI50 (NCI-H23): > 100 µM (inactive)
GI50 (DU-145): > 100 µM (inactive)
GI50 (NCI-H522): > 100 µM (inactive)
GI50 (NCI/ADR-RES): 43.9 µM (inactive)
GI50 (M14): > 100 µM (inactive)
GI50 (SNB-75): > 100 µM (inactive)
GI50 (IGROV-1): 96.8 µM (inactive)
GI50 (OVCAR-4): > 100 µM (inactive)
GI50 (PC-3): > 100 µM (inactive)
GI50 (CAKI-1): > 100 µM (inactive)
GI50 (HCT-116): 80.7 µM (inactive)
GI50 (MDA-MB-435): 34.9 µM (inactive)
GI50 (NCI-H226): 54 µM (inactive)
GI50 (MDA-N): > 100 µM (inactive)
